According to US7919508B2, “3-piperidinylisochroman-5-ols as dopamine agonists” (Aventis Pharmaceuticals Inc., priority 2004, dated 2011):
Counter-ions that a name gives are not always drawn.

Key:
[1] = target: human dopamine D2Long (D2L) receptors (Homo sapiens, UniProt P14416)
Description: [N-Methyl-^3H]Spiroperidol Binding to Cloned Human Dopamine D2Long Receptors
This assay measures the in vitro activity of drugs on cloned human dopamine D2Long (D2L) receptors and predicts the direct dopamine-displacing properties of neuropsychiatric, cardiovascular and renal agents at human dopamine D2 receptors.
Cells were maintained in Ham's F12+10% Fetal Bovine Serum+Penicillin/Streptomycin (100 U/ml/100 μg/ml)+G418 (400 μg/ml) medium and were split using Trypsin-EDTA (1 ml/plate, room temperature for ˜2 min. or until cells have lifted off plates). • 2. […] Plates are incubated at 37° C.+5% CO2 for ˜3 days or until cells were confluent.
Cells are harvested by mechanical scraping, washed using PBS collected in 250 ml Corning polypropylene centrifuge tubes, spun down and resuspended in dH2O (final volume per harvest approximately 60 ml). Protein determination is made according to the method of Lowry (Biorad DC Assay Kit). Following the determination of the protein concentration, the protein is diluted into distilled water with 10% DMSO to the appropriate volume based on expression levels (Bmax). The concentrated protein is aliquoted into 1.5 ml screw top eppendorf tubes and placed into a −80° C. freezer.
Assay Requirement: 1 cryovial per two 96 well plates
0.5M Tris Wash Buffer, pH 7.7 • a) 44.4 g Tris HCl • 26.5 g Tris Base • q.s. to 1 Liter (0.5 M Tris buffer, pH 7.7 at 37° C.) • b) make a 1:10 dilution in distilled H2O (0.05 M. Tris buffer, pH 7.7) • 2. Tris Buffer containing physiological salts • a) Stock buffer • NaCl 7.014 g • KCl 0.372 g • CaCl2 0.222 g • MgCl2 0.204 g • q.s. To 100 ml with 0.5 M. Tris Buffer • b) Dilute 1:10 in distilled H2O • This yields 0.05 M. Tris HCl, pH 7.7, containing NaCl (120 mM), KCl (5 mM), CaCl2 (2 mM) and MgCl2 (1 mM) • Optional: add 0.1% ascorbic acid and check pH (in assays with compounds that may oxidize. • c) 1.0% polyethyleneimine stock in 0.5M Tris (reagent 1.a) • Dilute 1:10 in distilled H2O Binding Assay • 750 μl Tissue • 150 μl [^3H]NMSP • 100 μl vehicle (for total binding) or 30 μM (−)
eticlopride (for nonspecific binding) or appropriate drug concentration.
The 96-Well Packard Unifilters GF/B are incubated for >1 h at 25° C. in 0.1% polyethylenimine. The cold tissue is added last and mixed on a orbital shaker for a few seconds and is then incubated at 37° C. for 30 min in a shaking water bath. The assay is stopped by rapid filtration through Packard Unifilter plates. The filter membranes are then washed with 15 ml of ice-cold 0.05 M Tris buffer. The filters are then dried (˜15 min. under a heat lamp or incubated for 15 min. in a 60° C. oven) and a bottom seal is applied. Then 40 μl of Packard Microscint 20 scintillation cocktail are added and a permanent topseal (Type P) is applied and heat sealed. The plates are placed in a Packard Topcount.
Specific binding is defined as the difference between total binding and the binding in the presence of 3 μM S-(−)-eticlopride. Total binding is approximately 10% of the total added ligand. […] The percent inhibition at each drug concentration is the mean of duplicate determinations.

[2] = target: T1, human dopamine D1 receptor (Homo sapiens, UniProt P21728); test: [3H]-SCH-23390 binding to cloned human dopamine D1 receptors (CHO cell membranes); details: competitive binding, [3H]-SCH-23390, cloned human D1 in CHO membranes; read-out: D1 affinity Ki
T1 construct: A 1.4 Kb Hind III to Xho I fragment was subcloned into the vector pMMLV; expressed in transfected cells; host or cells: CHO cells, clone CHO-D1M#9 (plasmid pHD1MMLV), membranes
Description: [^3H]-SCH-23390 Binding to Cloned Human Dopamine D1 Receptors
Determination of relative binding affinity of potential neuropsychiatric and other agents for the human dopamine D1 receptor.
The human D, cDNA was obtained from the laboratory of Dr. Marc Caron in the vector pCMV5. A 1.4 Kb Hind III to Xho I fragment was subcloned into the vector pMMLV. The plasmid pHD1MMLV was then sequenced completely. Transient transfections in COS-7 cells were performed and D1 specific binding was obtained. The construct pHD1MMLV was then transfected stably into CHO cells and 72 G418-resistant clones were isolated. High expressors were identified by mRNA dot blot analysis. Six high expressors were further characterized by binding and then clone CHO-D1M#9 was chosen for detailed pharmacological characterization. This clone was then grown in suspension culture for the purpose of obtaining enough protein to accommodate several months of screening.
B. Cell Culture Conditions
• 1. […] Cells are transferred to suspension culture when at least […] are available (this allows for 300,000 cells/ml in a 50 ml spinner flask; this is the ideal suspension density). Cells are removed from flasks with trypsin, spun down at 1000×G and resuspended the pellet in fresh medium: • 50% CHO-SFM-II+50% Ham's F12 w/10% FBS (final FBS conc. 5%)+400 μg/ml G418+1% P/S. • 3. After the transfer to suspension culture, growth is monitored and cell viability is assessed using trypan blue exclusion. Total and viable cell count on 5 sectors of the hemocytometer are recorded. When the viable cell density reaches 600,000 cell/ml, the volume is doubled. • 4. After 1 week of growth in the 50/50 medium, the cells are spun down and transferred to a new spinner flask and replaced with 75% CHO-SFM II/25% Ham's F12+10% FBS plus the pen-strep and G418. Thereafter every 3 days, the medium is replaced with new medium containing a decreasing amount of FBS as follows:
• 5. The final maintenance culturing medium is made up as follows: • A stock mixture of 10 ml of pen-strep, 0.5 ml of […] (active; final concentration: 200 μg/ml) G418 and 1 ml of FBS are mixed and filtered and refrigerated. A volume (11.5 ml) of this mixture is added to a freshly opened 1 L bottle of CHO-SFM II. C. Membrane Preparation
Cells are harvested into 250 ml centrifuge tubes and spun down at 1200×G. The medium is removed and 100 ml PBS (phosphate-buffered saline) is added to each centrifuge tube; cells are resuspended and spun down again. The PBS is removed and the final pellet is homogenized with a polytron on ice at a medium setting.
The membrane suspension is diluted in water and samples (10, 50 and 100 μl; q.s. to 100 μl with water) are diluted with 100 μl of 1% SDS. The sample is vortexed and allowed to stand for 5 min. Two aliquots each of the solubilized protein sample are placed in clean 13×100 test tubes for the assay. Instructions are followed as outlined in the BioRad DC protein determination kit (Catalog # 500-0112). OD readings that fall between 0.1-0.5 (mid-range of standard curve) should typically be used for calculations. Protein concentrations are calculated from a standard curve using bovine serum albumin as standard by linear regression and interpolation.
Following cell harvesting and protein determination, the homogenate is diluted with 10% DMSO to the correct volume based on Bmax and relative size of individual experiments to be conducted. The concentrated protein is stored in cryogenic vials in aliquots of 1-1.5 ml. Samples may be stored in −80° C. freezer or in liquid nitrogen.

human dopamine D2Long (D2L) receptors, sequence (P14416 whole entry): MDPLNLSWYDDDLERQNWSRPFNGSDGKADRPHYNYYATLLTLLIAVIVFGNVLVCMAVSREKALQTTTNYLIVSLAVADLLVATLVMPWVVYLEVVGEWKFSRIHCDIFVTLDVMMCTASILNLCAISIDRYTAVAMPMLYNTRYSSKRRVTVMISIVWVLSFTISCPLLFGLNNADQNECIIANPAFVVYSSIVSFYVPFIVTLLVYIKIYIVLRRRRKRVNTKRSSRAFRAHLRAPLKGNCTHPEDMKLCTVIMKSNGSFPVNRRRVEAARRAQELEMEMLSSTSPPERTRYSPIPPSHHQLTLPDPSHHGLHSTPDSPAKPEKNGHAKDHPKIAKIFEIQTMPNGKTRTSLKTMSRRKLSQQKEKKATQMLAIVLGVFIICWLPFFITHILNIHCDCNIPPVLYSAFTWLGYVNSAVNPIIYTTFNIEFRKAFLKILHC
T1 sequence (P21728 whole entry, the tested form may be a part): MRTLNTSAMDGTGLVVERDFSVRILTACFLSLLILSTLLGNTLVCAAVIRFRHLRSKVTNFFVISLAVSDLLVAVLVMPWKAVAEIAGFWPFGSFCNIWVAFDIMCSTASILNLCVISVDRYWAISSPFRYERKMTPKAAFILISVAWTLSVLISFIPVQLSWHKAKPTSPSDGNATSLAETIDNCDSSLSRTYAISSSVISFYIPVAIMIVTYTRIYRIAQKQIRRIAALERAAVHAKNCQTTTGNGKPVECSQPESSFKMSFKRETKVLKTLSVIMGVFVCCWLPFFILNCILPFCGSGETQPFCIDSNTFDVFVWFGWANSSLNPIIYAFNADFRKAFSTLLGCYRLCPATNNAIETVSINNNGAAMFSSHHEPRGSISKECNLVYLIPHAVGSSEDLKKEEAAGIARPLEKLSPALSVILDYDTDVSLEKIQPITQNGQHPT

SMILES | Ki [1] [nM] | Ki [2] [nM]
Cc1ccc2c(c1O)C[C@@H](C1CCN(S(=O)(=O)N3CCCCC3)CC1)O[C@H]2CN [Example 165, (1R,3S)-1-Aminomethyl-6-methyl-3-[1-(piperidine-1-sulfonyl)-piperidin-4-yl]-isochroman-5-ol hydrochloride] | ≥ 10000 | 227
Cc1ccc2c(c1O)C[C@@H](C1CCN(CC(C)C)CC1)O[C@H]2CN [Example 40, (1R,3S)-1-Aminomethyl-3-(1-isobutyl-piperidin-4-yl)-6-methyl-isochroman-5-ol dihydrochloride] | ≥ 10000 | 361
Cc1ccc2c(c1O)C[C@@H](C1CCN(S(=O)(=O)N(C)C)CC1)O[C@H]2CN [Example 164, 4-((1R,3S)-1-Aminomethyl-5-hydroxy-6-methyl-isochroman-3-yl)-piperidine-1-sulfonic acid dimethylamide hydrochloride] | ≥ 100000 | 400
Cc1ccc2c(c1O)C[C@@H](C1CCN(S(=O)(=O)c3ccc(Cl)c(Cl)c3)CC1)O[C@H]2CN [Example 150, (1R,3S)-1-Aminomethyl-3-[1-(3,4-dichloro-benzenesulfonyl)-piperidin-4-yl]-6-methyl-isochroman-5-ol hydrochloride] | ≥ 100000 | 256
Cc1ccc2c(c1O)C[C@@H](C1CCN(Cc3ccccc3C(F)(F)F)CC1)O[C@H]2CN [Example 72, (1R,3S)-1-Aminomethyl-6-methyl-3-[1-(2-trifluoromethyl-benzyl)-piperidin-4-yl]-isochroman-5-ol dihydrochloride] | 266 | 159
CCS(=O)(=O)N1CCC([C@@H]2Cc3c(ccc(C)c3O)[C@H](CN)O2)CC1 [Example 153, (1R,3S)-1-Aminomethyl-3-(1-ethanesulfonyl-piperidin-4-yl)-6-methyl-isochroman-5-ol hydrochloride] | ≥ 100000 | 250
Cc1ccc2c(c1O)C[C@@H](C1CCN(CCC(C)NC(=O)c3ccc(-c4ccccc4)cc3)CC1)O[C@H]2CN (stereo partly drawn) [Example 18, Biphenyl-4-carboxylic acid {3-[4-((1R,3S)-1-aminomethyl-5-hydroxy-6-methyl-isochroman-3-yl)-piperidin-1-yl]-1-methyl-propyl}-amide dihydrochloride] | 389 | 244
Cc1ccc2c(c1O)C[C@@H](C1CCN(C(=O)N(C)C)CC1)O[C@H]2CN [Example 132, 4-((1R,3S)-1-Aminomethyl-5-hydroxy-6-methyl-isochroman-3-yl)-piperidine-1-carboxylic acid dimethylamide hydrochloride] | ≥ 100000 | 256
Cc1ccc2c(c1O)C[C@@H](C1CCN(C(=O)Nc3ccccc3O)CC1)O[C@H]2CN [Example 127, 4-((1R,3S)-1-Aminomethyl-5-hydroxy-6-methyl-isochroman-3-yl)-piperidine-1-carboxylic acid (2-hydroxy-phenyl)-amide hydrochloride] | ≥ 10000 | 105
Cc1ccc2c(c1O)C[C@@H](C1CCN(C(=O)OCc3ccccc3)CC1)O[C@H]2CN [Example 122, 4-((1R,3S)-1-Aminomethyl-5-hydroxy-6-methyl-isochroman-3-yl)-piperidine-1-carboxylic acid benzyl ester hydrochloride] | 751 | 92
CNC[C@@H]1O[C@H](C2CCN(Cc3ccccc3)CC2)Cc2c1ccc(C)c2O [Example 171, (1R,3S)-3-(1-Benzyl-piperidin-4-yl)-6-methyl-1-methylaminomethyl-isochroman-5-ol] | 317 | 98
Cc1ccc2c(c1O)C[C@@H](C1CCN(S(=O)(=O)Cc3ccc(Cl)c(Cl)c3)CC1)O[C@H]2CN [Example 160, (1R,3S)-1-Aminomethyl-3-[1-(3,4-dichloro-phenylmethanesulfonyl)-piperidin-4-yl]-6-methyl-isochroman-5-ol hydrochloride] | ≥ 100000 | 264
CCN(CC)C[C@@H]1O[C@H](C2CCN(Cc3ccccc3)CC2)Cc2c1ccc(C)c2O [Example 170, (1R,3S)-3-(1-Benzyl-piperidin-4-yl)-1-diethylaminomethyl-6-methyl-isochroman-5-ol] | 377 | 1670
Cc1ccc2c(c1O)C[C@@H](C1CCN(CC(C)(C)C)CC1)O[C@H]2CN [Example 42, (1R,3S)-1-Aminomethyl-3-[1-(2,2-dimethyl-propyl)-piperidin-4-yl]-6-methyl-isochroman-5-ol dihydrochloride] | ≥ 10000 | 398
Cc1ccc2c(c1O)C[C@@H](C1CCN(C(C)c3ccccc3)CC1)O[C@H]2CN (stereo partly drawn) [Example 51, (1R,3S)-1-Aminomethyl-6-methyl-3-[1-(1-phenyl-ethyl)-piperidin-4-yl]-isochroman-5-ol dihydrochloride] | – | 156
Cc1ccc2c(c1O)C[C@@H](C1CCN(C(=O)N(c3ccccc3)c3ccccc3)CC1)O[C@H]2CN [Example 130, 4-((1R,3S)-1-Aminomethyl-5-hydroxy-6-methyl-isochroman-3-yl)-piperidine-1-carboxylic acid diphenylamide hydrochloride] | – | 156

Second part, the compound after the results:

Ki [1] [nM] | Ki [2] [nM] | SMILES
124 | 1700 | C=CCN(C)C[C@@H]1O[C@H](C2CCN(Cc3ccccc3)CC2)Cc2c1ccc(C)c2O [Example 176, (1R,3S)-1-[(Allyl-methyl-amino)-methyl]-3-(1-benzyl-piperidin-4-yl)-6-methyl-isochroman-5-ol]
– | 1910 | C=CCNC[C@@H]1O[C@H](C2CCN(Cc3ccccc3)CC2)Cc2c1ccc(C)c2O [Example 186, (1R,3S)-1-Allylaminomethyl-3-(1-benzyl-piperidin-4-yl)-6-methyl-isochroman-5-ol]
– | 1700 | Cc1ccc2c(c1O)C[C@@H](C1CCN(C(C(=O)O)c3ccccc3)CC1)O[C@H]2CN (stereo partly drawn) [Example 195, [4-((1R,3S)-1-Aminomethyl-5-hydroxy-6-methyl-isochroman-3-yl)-piperidin-1-yl]-phenylacetic acid dihydrobromide]
361 | 46 | Cc1ccc(C(=O)NCCN2CCC([C@@H]3Cc4c(ccc(C)c4O)[C@H](CN)O3)CC2)cc1 [Example 190, N-{2-[4-((1R,3S)-1-Aminomethyl-5-hydroxy-6-methylisochroman-3-yl)-piperidin-1-yl]-ethyl}-4-methylbenzamide dihydrobromide]
– | 3100 | C=CCN(CC=C)C[C@@H]1O[C@H](C2CCN(Cc3ccc(C(F)(F)F)cc3)CC2)Cc2c1ccc(C)c2O [Example 185, (1R,3S)-1-Diallylaminomethyl-6-methyl-3-[1-(4-trifluoromethyl-benzyl)-piperidin-4-yl]-isochroman-5-ol]
– | 110 | CCCN(C)C[C@@H]1O[C@H](C2CCN(Cc3ccc(C(F)(F)F)cc3)CC2)Cc2c1ccc(C)c2O [Example 184, (1R,3S)-6-Methyl-1-[(methyl-propyl-amino)-methyl]-3-[1-(4-trifluoromethyl-benzyl)-piperidin-4-yl]-isochroman-5-ol]
– | 2640 | C=CCN(CC=C)C[C@@H]1O[C@H](C2CCN(Cc3ccccc3)CC2)Cc2c1ccc(C)c2O [Example 187, (1R,3S)-3-(1-Benzyl-piperidin-4-yl)-1-diallylaminomethyl-6-methyl-isochroman-5-ol]
